How the values were obtained:
[1] = system: HDAC (Hela Nuclear Extract); assay: Activity Assay 5: in vitro HDAC fluorescent activity assay (Biomol kit); assay type: biochemical; details: compounds reduced with DTT prior to analysis, 37° C., 1 hour, read-out: Inhibition of HDAC activity IC50
Method: We analysed the ability of compounds to inhibit in vitro HDAC activity. In vitro HDAC assays were performed using a HDAC fluorescent activity assay kit (Biomol, UK) according to the manufacturer's instructions. Compounds were reduced prior to analysis; 1 mM compound was reduced with 30 mM DTT in DMSO overnight at room temperature, protected from light. Reactions were then set up in a 96-well plate. […] Serial dilutions were set up for each compound. Reactions containing Hela extract only and assay buffer only were also set up. 25 μl diluted Fluor de Lys™ substrate (100-fold in assay buffer) was added to each reaction, which were then incubated at 37° C. for 1 hour. The reaction was stopped by addition of 50 μl Fluor de Lys™ Developer (20-fold dilution in assay buffer, plus TSA diluted 100-fold). […] Inhibition of in vitro HDAC activity was determined for mean values of duplicate samples as percentages relative to HeLa extract only reactions. IC50 values were calculated using GraphPad Prism software.

MCF7 breast cancer cells = assay: Activity Assay 6: CyQuant cell growth inhibition, MCF7; assay type: cell-based; details: Homo sapiens, 144 h, MCF7, 6 days
Method: (§1) We analysed the ability of compounds to inhibit the in vitro growth of human cancer cells. Cell proliferation assays were performed using the CyQuant™ assay system (Molecular Probes, Inc. USA) according to the manufacturer's instructions. MCF7 breast, A2780 ovarian and PC3 and LNCAP prostate cancer cells were plated in 96 well plates, at a density of 1000 cells for MCF7 cells or 5000 cells for M780/PC3/LNCAP cells, in 100 μl of cell culture medium per well. Compounds were added a minimum of 5 hours later, in serial dilutions in cell culture medium, in 100 μl volumes at 2× final concentration. Cell culture medium was removed after 4 (A2780, PC3 or LNCAP cells) or 6 days (MCF7 cells) by inversion of the plate onto blotting paper and cells were gently washed once with 200 μl PBS. Plates were frozen immediately for a minimum of one hour at −80° C. and then thawed. 200 μl of 1× CyQuant cell lysis buffer supplemented with dye, made according to the manufacturer's instruction, was added immediately to each well and incubated at room temperature for 3-5 minutes. Fluorescence was then measured for each well using a Cytofluor II Fluoresence Multiwell Plate Reader and CytoFluor II software with filters at 480 nm for excitation and 520 nm for emission maxima. Cell proliferation was determined for mean values of duplicate samples as percentages relative to untreated cell samples (=100%). Growth inhibition curves were used to derive IC50 values.

[2] = system: PC3 prostate cancer cells; assay: Activity Assay 6: CyQuant cell growth inhibition, PC3; assay type: cell-based; details: Homo sapiens, 96 h, PC3, 4 days
Method: as §1

[3] = system: LNCAP prostate cancer cells; assay: Activity Assay 6: CyQuant cell growth inhibition, LNCAP; assay type: cell-based; details: Homo sapiens, 96 h, 4 days
Method: as §1

[4] = system: A2780 ovarian cancer cells; assay: Activity Assay 6: CyQuant cell growth inhibition, A2780; assay type: cell-based; details: Homo sapiens, 96 h, A2780, 4 days
Method: as §1

[5] = system: TNFα production from peripheral blood mononuclear cells (PBMCs); assay: Activity Assay 7: LPS-induced TNFα secretion from PBMCs (QUANTIKINE immunoassay); assay type: cell-based; details: Homo sapiens, PBMC
Method: We analysed the ability of compounds to inhibit the production of TNFα from peripheral blood mononuclear cells (PBMCs). TNF-α immunoassays were carried out using the QUANTIKINE® Human TNF-α assay kit (R&D systems, Abingdon UK) according to the manufacturer's instructions. […] Compounds were added 1 hour later in volumes of 100 μl at 6× final concentration. Five hours later lipopolysaccharide (LSP, Sigma, Poole, UK) was added in a volume of 10 μl at 60× final concentration. Plates were mixed and left overnight at 37° C. 5% C02. Plates were centrifuged and cell supernatant was transferred to a new plate. The QUANTIKINE® assay reagents and standards were prepared according to the manufacturer instructions. The QUANTIKINE® assay plate was prepared by adding 50 μl of assay diluent RD1F into each well. This was followed by 200 μl of standard or 100 μl of calibrator diluent plus 100 μl cell supernatant; this was incubated for 2 hours at room temperature (RT). The plate was washed using wash buffer 4 times. After the final wash the plate was tapped on clean paper towel to remove all residual buffer. 200 μl of TNF-α conjugate was added to each well and incubated for 1 hour at RT. The plate was then washed as before. The required amount of substrate solution was prepared by adding equal volumes of colour reagents A and B, protecting from light, 200 μl of this mix was added to each well and incubated for 20 mins at RT, protected from light. 50 μl of stop solution was added to each well in the same order as the substrate solution and the plate was read on a Biorad 680 96 well plate reader (Bio-Rad, Hemel Hempstead, UK) at 450 nm with λ correction at 570 nm. TNF-α levels were determined for mean values of duplicate samples using absorbance in nm, calibration zero values were subtracted from all results to correct for the addition of calibrator diluent in the assay.

MCF7 cells = assay: Activity Assay 3: cell cycle distribution and survival by propidium iodide flow cytometry; assay type: cell-based; details: MCF7, ~10×IC50 for growth inhibition, 24, 48 or 72 hours
Method: Method; MCF7 cells were incubated with indicated concentrations of compounds, or left untreated as a control, for various times, as detailed in the figure legends. Cells were collected and the proportion of cells in different phases of the cell cycle determined using propidium iodide staining and flow cytometry as previously described (Purohit et al., Int J Ca 85, 584-9 2000). The proportion of cells with <G0/G1 content (pre G0) relative to total cells was calculated first. The proportion of cells in different cell cycle phases (G0/G1, S, G2/M) was calculated as a proportion of all cells in the cell cycle (i.e., total cells minus cells with <G0/G1 content).
MCF7 cells were incubated with the indicated concentrations of compounds (each equivalent to ˜10×IC50 values for growth inhibition), or DMSO as a solvent control, for 24, 48 or 72 hours. The proportion of cells in different phases of the cell cycle was determined by flow cytometry. Data shown are mean values ±SD, derived from two separate experiments, relative to untreated cells which are normalised to 1.

| IC50 [1] [nM] | IC50 (MCF7 breast cancer cells) [nM] | IC50 [2] [nM] | IC50 [3] [nM] | IC50 [4] [nM] | Compound | inhibition at 0.2 µM ([5]; Concentration 200 nM) [%] | inhibition at 0.0075 µM ([5]; Concentration 7.5 nM) [%] | cell cycle distribution and survival (MCF7 cells) |
| --- | --- | --- | --- | --- | --- | --- | --- | --- |
| 25 | 2.9 | – | – | – | CC(C)[C@H]1NC(=O)[C@H]2CSSCC/C=C/[C@H](CC(=O)N[C@H](Cc3ccccc3)C(=O)N2)OC(=O)CNC1=O [Compound 9B, (E)-(1S,7R,10S,21R)-21-benzyl-7-isopropyl-2-oxa-12,13-dithia-5,8,20,23-tetraaza-bicyclo[8.7.6]tricos-16-ene-3,6,9,19,22-pentaone] | – | – | – |
| 9.9 | 5.2 | – | – | – | CC(C)[C@H]1NC(=O)C[C@H]2/C=C/CCSSC[C@@H](NC1=O)C(=O)N[C@H](C(C)C)C(=O)NCC(=O)O2 [Compound 9C, (E)-(1S,7R,10S,21R)-7,21-diisopropyl-2-oxa-12,13-dithia-5,8,20,23-tetraaza-bicyclo[8.7.6]tricos-16-ene-3,6,9,19,22-pentaone] | – | – | – |
| 87 | 117 | 296 | 1190 | 651 | CC(C)[C@H]1NC(=O)[C@H]2CSSCC/C=C/[C@H](CC(=O)N[C@H](C)C(=O)N2)OC(=O)[C@@H](C)NC1=O [Compound 9E, (E)-(1S,4R,7R,10S,21R)-7-isopropyl-4,21-dimethyl-2-oxa-12,13-dithia-5,8,20,23-tetraaza-bicyclo[8.7.6]tricos-16-ene-3,6,9,19,22-pentaone] | 84 | – | – |
| 8 | 1.6 | 0.8 | 6.7 | 3 | CC(C)[C@H]1NC(=O)[C@H]2CSSCC/C=C/[C@H](CC(=O)N[C@H](CCC(=O)OC(C)(C)C)C(=O)N2)OC(=O)CNC1=O [Compound 9F, 3-((E)-(1S,7R,10S,21R)-7-Isopropyl-3,6,9,19,22-pentaoxo-2-oxa-12,13-dithia-5,8,20,23-tetraaza-bicyclo[8.7.6]tricos-16-en-21-yl)-propionic acid tert-butyl ester] | – | 68 | – |
| 1.7 | 457 | – | – | – | CC(C)[C@H]1NC(=O)[C@H]2CSSCC/C=C/[C@H](CC(=O)N[C@H](CCC(=O)O)C(=O)N2)OC(=O)CNC1=O [Compound 10F, 3-((E)-(1S,7R,10S,21R)-7-Isopropyl-3,6,9,19,22-pentaoxo-2-oxa-12,13-dithia-5,8,20,23-tetraaza-bicyclo[8.7.6]tricos-16-en-21-yl)-propionic acid] | – | – | – |
| – | – | – | – | – | O=C(CCCCCCC(=O)Nc1ccccc1)NO [SAHA, Suberoylanilide hydroxamic acid, reference compound] | – | – | induce a predominant G2/M phase arrest and cell death |
